The values that follow come from PMC6669827 (Toxins, 2019).

Values joined by “and” are separate entries in the source; they are usually repeats but may differ in a detail not shown here. Identical values can stand only once. “Also recorded” adds a separate entry of the source.

One experiment addresses T1, human α7 nAChR (Homo sapiens, UniProt P36544).
T1 construct: expressed in transfected cells; host or cells: Xenopus laevis oocytes injected with cRNA (55.8 ng per oocyte); the cDNA clone was a gift of Dr. J. Michael McIntosh, University of Utah
It counts as cell-based.

The subject of a further experiment is human α3β2 nAChR. Type of experiment: cell-based.

T1 sequence (P36544 23-502): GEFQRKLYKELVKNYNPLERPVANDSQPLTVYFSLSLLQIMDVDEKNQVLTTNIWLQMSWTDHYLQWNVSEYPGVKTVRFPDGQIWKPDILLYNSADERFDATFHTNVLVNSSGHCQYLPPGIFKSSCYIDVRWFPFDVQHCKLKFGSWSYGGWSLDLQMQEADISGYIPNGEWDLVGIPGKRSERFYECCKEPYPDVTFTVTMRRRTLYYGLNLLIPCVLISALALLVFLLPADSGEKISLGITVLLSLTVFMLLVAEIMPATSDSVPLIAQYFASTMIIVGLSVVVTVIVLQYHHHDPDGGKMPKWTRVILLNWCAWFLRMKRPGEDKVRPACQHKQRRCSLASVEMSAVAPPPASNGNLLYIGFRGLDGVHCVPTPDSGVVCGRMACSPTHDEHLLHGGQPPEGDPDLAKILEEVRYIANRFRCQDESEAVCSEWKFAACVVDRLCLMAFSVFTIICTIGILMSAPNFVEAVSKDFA

With αD-PiXXA [F7-3], on human α7 nAChR, the “reversibility of the effect of purified peptide on hα7 nAChR (in words)” value is given as “slowly reversible; also recorded: very slowly reversible”; the “selectivity hα7 over hα3β2 (in words)” value is “selective for hα7 nAChRs”; the “time to return to the initial activity after starting the washout, hα7 nAChR” value is 21 min and ~ 21 min. Moreover, the IC50 at human α7 nAChR (read-out: half-maximal inhibitory concentration (IC50) on hα7 nAChRs) was determined as 6.2 µM. Further, in the experiment with human α3β2 nAChR, the “inhibition of the ACh-induced response on hα3β2 nAChRs by purified peptide” value amounted to 6.7 ± 3.1%. Also, the “effect on hα3β2 nAChRs (in words)” value with human α3β2 nAChR (6.5 μM) was “did not significantly affect”.
